# Measured values taken from patent publication US12569506B2, “Methods of treating osteonecrosis with LLP2A-bisphosphonate compounds” (The Regents of the University of California, priority 2016, dated 2026).
# “Also recorded” adds a separate entry of the source.
# Key:
# [1] = system: osteocytes; assay: Cortical bone osteocyte apoptosis (TUNEL) in glucocorticoid-treated mice; type: in vivo; details: GC 56 days, one dose of LLP2A-Ale at day 28, sacrifice day 56, TUNEL (FIG. 5)
# Protocol: FIG. 5. Cortical bone osteocyte apoptosis. Mice were treated with PL for 56 days, GC alone for 56 days or GC alone for 28 days, then GC plus one dose of LLP2A-Ale at day 28. Animals were sacrificed at day 56 and the percent of osteocytes that were apoptotic were measured.
# Osteocytes die from loss of blood supply and also from glucocorticoid treatment. […] The animals were sacrificed at day 56, the bones were decalcified and then TUNEL assays were performed to determine the number of apoptotic osteocytes. Glucocorticoid treatment alone, at day 56 increased the number of osteocytes that were apoptotic.
# [2] = system: VEGF; assay: Serum VEGF levels by ELISA in glucocorticoid-treated mice; type: in vivo; details: day 56; GC from day 1; LLP2A-Ale given at day 28; ELISA in duplicate (FIG. 4)
# Protocol: FIG. 4. Serum VEGF-A levels in glucocorticoid-treated mice. Mice treated with placebo (PL), glucocorticoid (GC), glucocorticoid and 250 μg/kg LLP2A-Ale (GC+LLP2A-Ale), glucocorticoid and PTH (GC+PTH), or glucocorticoid and PTH and 250 μg/kg LLP2A-Ale (GC+PTH+LLP2A-Ale) were measured for serum levels of VEGF.
# Increased blood vessel formation can also be assessed by marker analysis. For example, VEGF is a pro-angiogenic factor and stimulates new blood vessel formation. […] PTH was given 20 ug/kg 5× a week, while LLP2A-Ale was given at […] at day 28 only.
# [3] = system: dexamethasone-treated mice; assay: Adipose and sinusoid volume of distal femoral epiphysis, 90 day model; type: in vivo, BALB/c mice
# Protocol: FIG. 10A-10B. Adipose and sinusoid volume of femurs from treated mice. Mice were treated with placebo (PL), dexamethasone alone (Dex), Dex+250 μg/kg LLP2A-Ale, Dex+500 μg/kg LLP2A-Ale, or Dex+750 μg/kg LLP2A-Ale as described above for FIG. 7. (A) Mice were assessed for adipose volume within the distal femoral epiphysis region. […] (B) Mice were assessed for sinusoids in the bone marrow.
# (§1) Both the right and left distal femurs were fixed in 10% neutral buffered formalin and were shaken for 3 days, then decalcified in 5% EDTA until the bones were fully decalcified. The specimens were then processed in ascending concentrations of ethanol and embedded in paraffin. Tissue sections were cut into 5 microns sections, stained with hematoxylin and eosin and evaluated for the presence of osteonecrosis by bright field microscopy at 20× magnification. Experimental methods are also described in Mohan et al., Calif Tissue Int (2016) doi:10.1007/s00223-016-0195-6, which is incorporated herein by reference in its entirety for all purposes. Osteonecrosis was detected using modified criteria reported by Yang el al., (a mouse model for glucocorticoid-induced osteonecrosis: Effect of a steroid holiday. J Orthop Res. 2009; 27:169-75) which defines osteonecrosis as requiring all of the following changes: (1) empty lacunae, (2) pyknotic osteocyte nuclei in areas of empty lacunae and necrosis of adjacent bone marrow, (3) presence of excessive fat cells in the bone marrow, (4) cartilage degradation and (5) presence of fibrin thrombi in the blood vessels. In addition, trabecular bone volume, adipose volume, sinusoid volume and osteoblast surface at the distal femoral epiphyses were measured. Empty lacunae density was calculated by empty lacunae/total osteocytes within the entire distal femoral epiphysis region for each sample. Each section was scored by two experienced histologists, then a consensus reading was performed by two additional experienced histologists.
# [4] = system: dexamethasone-treated mice; assay: Histological evaluation (H&E) of femoral epiphyses, 90 day model; type: in vivo, BALB/c mice
# Protocol: FIG. 9A-9F. Histological evaluation of femurs from placebo- or dexamethasone-treated mice. Mice were treated with placebo (PL) or dexamethasone alone (Dex) as described above for FIG. 7. All mice were euthanized at day 90. Right and left distal femurs were fixed in 10% neutral buffer formalin and decalcified. The specimens were dehydrated, embedded in paraffin, cut into 5 micron sections and H&E stained. The sections were scored by two experienced histologists and then a consensus reading was performed by two additional histologists. FIG. 9A-9B: 4× (A) and 20× (B) magnifications of representative proximal femoral epiphyses in mice treated with placebo. (C) 4× magnification of a representative proximal femoral epiphyses in mice treated with dexamethasone (Dex) alone. FIGS. 9D, 9E, and 9F: 20× magnifications of representative proximal femoral epiphyses in mice treated with dexamethasone (Dex) alone.
# FIG. 11A-11F. Histological evaluation of femurs from LLP2A-Ale-treated mice. Mice were treated with Dex+250 μg/kg LLP2A-Ale as described above for FIG. 7. All mice were euthanized at day 90. Right and left distal femurs were fixed in 10% neutral buffer formalin and decalcified. The specimens were dehydrated, embedded in paraffin, cut into 5 micron sections and H&E stained. The sections were scored by two experienced histologists and then a consensus reading was performed by two additional histologists. (A, D): 4× magnifications of representative proximal femoral epiphyses in mice treated with Dex+LLP2A-Ale. (B, C, E, F): 20× magnifications of representative proximal femoral epiphyses in mice treated with Dex+LLP2A-Ale.
# as §1
# [5] = system: glucocorticoid-treated mice; assay: Trabecular bone volume in glucocorticoid-treated mice; type: in vivo; details: GC 28 days then treatment
# Protocol: FIG. 6. Trabecular bone volume in glucocorticoid-treated mice. Mice were treated for 28 days with glucocorticoid (GC), then treated with either LLP2A-Ale, PTH, or LLP2A-Ale+PTH. The outcome measure was the change in trabecular bone mass from day 28 to 56, measured in vivo at the distal femur (left panel) and change in trabecular bone mass for the vertebral trabecular bone volume (right panel).
# Changes in trabecular bone mass during the treatment period for the distal femur and vertebral trabecular bone volume were measured.
compound,measurement,setting,value
Cc1ccccc1NC(=O)Nc1ccc(CC(=O)N[C@@H](CCCCNC(=O)/C=C/c2cccnc2)C(=O)N[C@@H](CCCC(=O)O)C(=O)NC2(C(=O)NCCOCCOCCNC(=O)CCC(=O)NCCOCCOCCNC(=O)CCC(=O)N[C@@H](CCCCNC(=O)[C@H](N)CSC3CC(=O)N(CC4CCC(C(=O)NCCCC(O)(P(=O)(O)O)P(=O)(O)O)CC4)C3=O)C(N)=O)CCCCC2)cc1 (some centres unmarked) [LLP2A-Ale],Cortical bone osteocyte apoptosis (percent of osteocytes apoptotic),[1],prevented osteocyte apoptosis
same,Serum levels of VEGF,[2],returned the levels of serum VEGF to those of placebo treated animals
same,Sinusoid volume on increasing the dose,[3]; LLP2A-Ale above 250 μg/kg vs 250 μg/kg,marginal decrease
same,Adipose volume within the distal femoral epiphysis,"[3]; all three dosages (250, 500, 750 μg/kg) vs Dex alone, day 90 (FIG. 10A)",reduced adipose volumes
same,Sinusoid volume in the bone marrow,"[3]; all three dosages vs placebo or Dex alone, day 90 (FIG. 10B)",increased sinusoid volumes
same,Sinusoid formation (histological sections of epiphyses),"[4]; Dex+250 μg/kg LLP2A-Ale, day 90, H&E (FIG. 11)",increased sinusoid formation; also recorded: increase in sinusoid formation
same,Amount of fibrin within the bone marrow,[4]; day 90,appeared to reduce the amount of fibrin
same,Number of osteoblasts on the bone surface in areas of osteonecrosis,"[4]; epiphyses, day 90",increased the number of osteoblasts
same,Adipocyte density in the bone marrow,"[4]; vs dexamethasone alone, day 90",appeared to reduce
same,Cellularity of the bone marrow,"[4]; vs dexamethasone alone, day 90",maintained the cellularity of the bone marrow
same,Number of empty lacunae/pyknotic nuclei,"[4]; vs dexamethasone alone, day 90",appeared to reduce
same,Sinusoidal red blood cell volume,"[4]; vs dexamethasone alone, day 90",increased the sinusoidal red blood cell volume
same,Change in trabecular bone mass/volume at the distal femur,"[5]; change from day 28 to 56, measured in vivo (FIG. 6 left)",increased the distal femur trabecular bone volume to the baseline/sham level
same,Vertebral trabecular bone volume,[5]; day 28 to 56 (FIG. 6 right),increased the bone volume relative to the glucocorticoid-treated mice
